Like-named read-outs stand apart in the source and are kept apart here. Starred links: 1 amine or outer side, 2 acyl side, 3 side chain; linkers in the order of their positions; H or OH if unused. Positions of bridges follow the written chain, without caps; N, C: chain ends. Non-standard residues stand in square brackets, D forms with d. Residues, ends and D or L forms follow the SMILES beside them. *: point of attachment. Ala(1H-tetrazol-5-yl) = N[C@@H](Cc1nnn[nH]1)C(=O)O; X2 = O=C(C[C@H](N[*:1])C(F)(F)F)[*:2]; Lys(Me2) = CN(C)CCCC[C@H](N)C(=O)O; NMeF = CN[C@@H](Cc1ccccc1)C(=O)O; NMeβAla = CN(CCC(=O)[*:2])[*:1]; NMeL = CN[C@@H](CC(C)C)C(=O)O; NMeV = CN[C@H](C(=O)O)C(C)C; NMeS = CN[C@@H](CO)C(=O)O; NMeA = CN[C@@H](C)C(=O)O; Piperidide = C1CCN(*)CC1; dNMeA = CN[C@H](C)C(=O)O; Abu = CC[C@H](N)C(=O)O; Sar = CNCC(=O)O; tBu = CC(C)(C)*
Test: PAMPA (parallel artificial membrane permeability assay)
Format: in vitro ADME
Details: PAMPA
Description: 4 μL of a phospholipid-organic solvent solution composed of 10% (w/v) of egg lecithin, 0.5% (w/v) of cholesterol and dodecane (all purchased from Fluka) was added to a Millipore 96-well membrane filter (hydrophobic PVDF (polyvinylidene difluoride), pore size 0.45 microm) (purchased from Millipore Japan) to make an artificial phospholipid membrane.
A DMSO solution containing the compound at a concentration of 10 mM was added in a percentage of 0.5% (v/v) to a 50 mM MOPSO buffer, pH 6.5, containing 5.0% (w/v) of glycocholic acid, and 330 μL of the mixture was added to a 96-well plate made of Teflon (donor plate). The above artificial phospholipid membrane plate was attached onto the donor plate, and 280 μL of a solution obtained by adding DMSO in a percentage of 0.5% (v/v) to a 50 mM MOPSO buffer, pH 6.5, containing 5.0% (w/w) of glycocholic acid was added onto the artificial phospholipid membrane (acceptor plate). These plates were allowed to stand at 37° C. for 18 hours, after which the concentrations of the compound in the solutions in the donor plate and the acceptor plate were measured by LC/MS or LC/UV, and the membrane permeation rate of the compound (Pe) was calculated by the following formulas (1) and (2), where t is the testing time, A is the membrane filter area, VD is the amount of the donor solution, VA is the amount of the acceptor solution, CD,t is the concentration of the compound in the donor solution at the time t, and CA,t is the concentration of the compound in the acceptor solution at the time t.

[1] = membrane permeation rate (Pe), 50 mM MOPSO buffer pH 6.5 with 5.0% glycocholic acid, 37° C., 18 hours, read-out: iPAMPA Pe

| SMILES | Papp at 18 hours, 50 µM [1] | also measured |
| --- | --- | --- |
| CC(C)C[C@@H]1NC(=O)[C@H](CCC(=O)O)NC(=O)[C@H](Cc2ccccc2)N(C)C(=O)[C@H](CC(C)C)NC(=O)[C@H](CC(C)C)N(C)C(=O)[C@H](Cc2ccccc2)NC(=O)[C@H](CC(C)C)N(C)C(=O)[C@H](CC(C)C)N(C)C(=O)[C@H](Cc2ccccc2)NC(=O)CN(C)C(=O)C[C@@H](C(=O)N(C)[C@@H](Cc2ccccc2)C(=O)N[C@@H](C)C(=O)N2CCCCC2)NC1=O [DP-596] ([Sar]F[NMeL][NMeL]F[NMeL]L[NMeF]ELD[NMeF]A-Piperidide; lactam N-11) |  | Papp at 18 hours, 50 µM (pH 6.5): 3.2 ×10⁻⁶ cm/s |
| CC[C@H](C)[C@@H]1NC(=O)[C@H](CC(C)C)N(C)C(=O)[C@H](C)N(C)C(=O)[C@H](Cc2ccccc2)N(C)C(=O)[C@@H](C)N(C)C(=O)C[C@@H](C(=O)N2CCCCC2)NC(=O)[C@H](CC(C)C)N(C)C(=O)[C@H]([C@@H](C)O)NC(=O)[C@H](CO)NC(=O)[C@H](CC(C)C)NC(=O)[C@H](C)N(C)C(=O)[C@H](CC(C)C)N(C)C(=O)[C@H](Cc2ccccc2)NC(=O)[C@H](CC(C)C)N(C)C1=O [DP-959] ([dNMeA][NMeF][NMeA][NMeL]I[NMeL]F[NMeL][NMeA]LST[NMeL]D-Piperidide; lactam N-14) | 2.9 ×10⁻⁶ cm/s |  |
| CC[C@H](C)[C@@H]1NC(=O)[C@H](CC(C)C)N(C)C(=O)[C@H](C(C)C)N(C)C(=O)[C@H](Cc2ccccc2)N(C)C(=O)[C@H](CC(C)C)NC(=O)[C@H](C)N(C)C(=O)[C@H](C)N(C)C(=O)[C@H]([C@@H](C)O)NC(=O)[C@H](Cc2ccccc2)N(C)C(=O)CN(C)C(=O)C[C@@H](C(=O)N(C)[C@@H](Cc2ccccc2)C(=O)N[C@@H](C)C(=O)N2CCCCC2)NC1=O [DP-186] ([Sar][NMeF]T[NMeA][NMeA]L[NMeF][NMeV][NMeL]ID[NMeF]A-Piperidide; lactam N-11) | 37 ×10⁻⁶ cm/s |  |
| CC(C)C[C@@H]1NC(=O)[C@@H](C)N(C)C(=O)C[C@@H](C(=O)N(C)[C@@H](Cc2ccccc2)C(=O)N[C@@H](C)C(=O)N2CCCCC2)NC(=O)[C@H](Cc2ccccc2)N(C)C(=O)[C@H](CC(C)C)N(C)C(=O)[C@H](Cc2ccccc2)NC(=O)[C@H]([C@@H](C)O)NC(=O)[C@H](CC(C)C)N(C)C(=O)[C@H](CC(C)C)N(C)C1=O [DP-359] ([dNMeA]L[NMeL][NMeL]TF[NMeL][NMeF]D[NMeF]A-Piperidide; lactam N-9) | 43 ×10⁻⁶ cm/s |  |
| CC(C)C[C@@H]1NC(=O)[C@H](Cc2ccccc2)N(C)C(=O)[C@H](Cc2ccccc2)N(C)C(=O)[C@H](C(C)C)NC(=O)[C@H](CC(C)C)N(C)C(=O)[C@H](Cc2nn[nH]n2)NC(=O)[C@H](CC(C)C)N(C)C(=O)C[C@@H](C(=O)N2CCCCC2)NC(=O)[C@H](CC(C)C)N(C)C1=O [DP-907] ([NMeL][Ala(1H-tetrazol-5-yl)][NMeL]V[NMeF][NMeF]L[NMeL]D-Piperidide; lactam N-9) | 21 ×10⁻⁶ cm/s |  |
| CC[C@@H]1NC(=O)[C@H](CO)N(C)C(=O)[C@H](CC(C)C)N(C)C(=O)[C@H](CC(C)C)N(C)C(=O)[C@H](CC(C)C)N(C)C(=O)[C@@H](C)NC(=O)[C@H](CC(C)C)NC(=O)C[C@@H](C(F)(F)F)NC(=O)[C@H](C(C)C)NC(=O)[C@H](CC(C)C)N(C)C(=O)CN(C)C1=O [DP-656] (cyclo([Abu][Sar][NMeL]V[X2]L[dA][NMeL][NMeL][NMeL][NMeS])) | 30 ×10⁻⁶ cm/s |  |
| NS(=O)(=O)c1cc2c(cc1Cl)NCNS2(=O)=O [hydrochlorothiazide, reference compound] |  | Papp at 18 h, 50 µM: 0.6 ×10⁻⁶ cm/s |
| CC(C)C[C@@H]1NC(=O)[C@H](Cc2ccccc2)N(C)C(=O)[C@H](C)NC(=O)[C@H](C)N(C)C(=O)[C@H]([C@@H](C)O)NC(=O)[C@H](CC(C)C)N(C)C(=O)[C@H](C)N(C)C(=O)C[C@@H](C(=O)N2CCCCC2)NC(=O)[C@H](CC(C)C)N(C)C(=O)[C@H](Cc2ccccc2)N(C)C(=O)[C@H](CC(C)C)N(C)C1=O [DP-156] ([NMeA][NMeL]T[NMeA]A[NMeF]L[NMeL][NMeF][NMeL]D-Piperidide; lactam N-11) | 24 ×10⁻⁶ cm/s |  |
| CC(C)C[C@@H]1NC(=O)[C@H](CC(C)C)N(C)C(=O)[C@H](CCCCN(C)C)NC(=O)[C@H](CC(C)C)N(C)C(=O)[C@H](Cc2ccccc2)N(C)C(=O)[C@H](CC(C)C)N(C)C(=O)[C@@H](C(C)C)NC(=O)C[C@@H](C(=O)N(C)[C@@H](Cc2ccccc2)C(=O)N[C@@H](C)C(=O)N2CCCCC2)NC(=O)[C@H](CC(C)C)N(C)C(=O)[C@H](CC(C)C)N(C)C1=O [DP-588] ([dV][NMeL][NMeF][NMeL][Lys(Me2)][NMeL]L[NMeL][NMeL]D[NMeF]A-Piperidide; lactam N-10) | 0.6 ×10⁻⁶ cm/s |  |
| CC(C)C[C@@H]1NC(=O)[C@H](CC(C)C)N(C)C(=O)[C@H](C)N(C)C(=O)C[C@@H](C(=O)N(C)[C@@H](Cc2ccccc2)C(=O)N[C@@H](C)C(=O)N2CCCCC2)NC(=O)[C@H]([C@@H](C)O)NC(=O)[C@H](CC(C)C)N(C)C(=O)[C@H](Cc2ccccc2)NC(=O)[C@H](Cc2ccccc2)N(C)C(=O)[C@H](CC(C)C)N(C)C1=O [DP-387] ([NMeA][NMeL]L[NMeL][NMeF]F[NMeL]TD[NMeF]A-Piperidide; lactam N-9) | 2.8 ×10⁻⁶ cm/s |  |
| CC[C@H](C)[C@@H]1NC(=O)[C@H](CC(C)C)N(C)C(=O)CN(C)C(=O)[C@H]([C@@H](C)O)NC(=O)[C@H](C)N(C)C(=O)C[C@@H](C(=O)N(C)[C@@H](CC(C)C)C(=O)N[C@@H](C)C(=O)N2CCCCC2)NC(=O)[C@H](CC(C)C)N(C)C(=O)[C@H](Cc2ccccc2)N(C)C(=O)[C@H](CC(C)C)N(C)C1=O [DP-663] ([NMeA]T[Sar][NMeL]I[NMeL][NMeF][NMeL]D[NMeL]A-Piperidide; lactam N-9) | 43 ×10⁻⁶ cm/s |  |
| CC(C)C[C@H]1C(=O)N(C)[C@@H](Cc2ccccc2)C(=O)NCC(=O)N(C)[C@@H](Cc2ccccc2)C(=O)N(C)[C@@H](C)C(=O)N[C@@H]([C@@H](C)O)C(=O)N[C@H](C(=O)N(C)[C@@H](Cc2ccccc2)C(=O)N(C)[C@@H](Cc2ccccc2)C(=O)N[C@@H](C)C(=O)N2CCCCC2)CC(=O)N(C)CCC(=O)N[C@@H](C(C)C)C(=O)N1C [DP-312] ([NMeβAla]V[NMeL][NMeF]G[NMeF][NMeA]TD[NMeF][NMeF]A-Piperidide; lactam N-9) |  | Papp at 18 hours, 50 µM (pH 6.5): 47 ×10⁻⁶ cm/s |
| CC(C)C[C@@H]1NC(=O)[C@H](Cc2ccccc2)N(C)C(=O)[C@@H](C(C)C)NC(=O)C[C@@H](C(=O)N2CCCCC2)NC(=O)[C@H](C(C)C)N(C)C(=O)[C@H](Cc2ccccc2)N(C)C(=O)[C@H](COC(C)(C)C)NC(=O)[C@H](CC(C)C)N(C)C(=O)CN(C)C(=O)[C@H]([C@@H](C)O)NC(=O)[C@H](CC(C)C)N(C)C1=O [DP-149] ([dV][NMeF]L[NMeL]T[Sar][NMeL]S(tBu)[NMeF][NMeV]D-Piperidide; lactam N-11) |  | Papp at 18 hours, 50 µM (pH 6.5): 17 ×10⁻⁶ cm/s |
| CC[C@H](C)[C@@H]1NC(=O)[C@H](C)N(C)C(=O)[C@H]([C@@H](C)O)NC(=O)[C@H](CC(C)C)N(C)C(=O)[C@H](Cc2ccccc2)NC(=O)[C@H](C(C)C)N(C)C(=O)[C@H](CC(C)C)N(C)C(=O)[C@H](C)N(C)C(=O)C[C@@H](C(=O)N(C)[C@@H](Cc2ccccc2)C(=O)N[C@@H](C)C(=O)N2CCCCC2)NC(=O)[C@H](CC(C)C)N(C)C1=O [DP-376] ([NMeA][NMeL][NMeV]F[NMeL]T[NMeA]I[NMeL]D[NMeF]A-Piperidide; lactam N-10) | 29 ×10⁻⁶ cm/s |  |
| CC[C@H](C)[C@@H]1NC(=O)[C@H](Cc2ccccc2)N(C)C(=O)[C@H](C)N(C)C(=O)[C@H](CC(C)C)N(C)C(=O)[C@H](Cc2ccccc2)N(C)C(=O)CCN(C)C(=O)C[C@@H](C(=O)N(C)[C@@H](Cc2ccccc2)C(=O)N(C)[C@@H](Cc2ccccc2)C(=O)N[C@@H](C)C(=O)N2CCCCC2)NC(=O)[C@H]([C@@H](C)O)NC(=O)[C@H](CC(C)C)N(C)C(=O)[C@H](CC(C)C)N(C)C1=O [DP-499] ([NMeβAla][NMeF][NMeL][NMeA][NMeF]I[NMeL][NMeL]TD[NMeF][NMeF]A-Piperidide; lactam N-10) | 0.31 ×10⁻⁶ cm/s |  |
| CC(C)C[C@H]1C(=O)N[C@@H](C(C)C)C(=O)N(C)[C@@H](CC(C)C)C(=O)N[C@@H](C)C(=O)N[C@H](C)C(=O)N(C)[C@@H](CC(C)C)C(=O)N(C)[C@@H](CC(C)C)C(=O)N(C)[C@@H](CC(C)C)C(=O)N(C)[C@@H](CO)C(=O)N[C@H](C(F)(F)F)CC(=O)N(C)CC(=O)N1C [DP-654] (cyclo(A[dA][NMeL][NMeL][NMeL][NMeS][X2][Sar][NMeL]V[NMeL])) | 23 ×10⁻⁶ cm/s |  |
| CC[C@H](C)[C@@H]1NC(=O)[C@H](Cc2ccccc2)N(C)C(=O)[C@H]([C@@H](C)O)NC(=O)[C@H](C)NC(=O)C[C@@H](C(=O)N(C)[C@@H](Cc2ccccc2)C(=O)N(C)[C@@H](Cc2ccccc2)C(=O)N[C@@H](C)C(=O)N2CCCCC2)NC(=O)[C@H](CC(C)C)N(C)C(=O)[C@H](CC(C)C)N(C)C(=O)[C@H](Cc2ccccc2)N(C)C(=O)[C@H](CC(C)C)N(C)C(=O)[C@H](C)N(C)C1=O [DP-286] (AT[NMeF]I[NMeA][NMeL][NMeF][NMeL][NMeL]D[NMeF][NMeF]A-Piperidide; lactam N-10) |  | Papp at 18 hours, 50 µM (pH 6.5): 0.24 ×10⁻⁶ cm/s |

— patent US9409952B2, “Peptide-compound cyclization method” (Chugai Seiyaku Kabushiki Kaisha, priority 2011, dated 2016)
